This note sets out measurements from patent US6669939B1, “(Poly)peptides which represent the epitopes of the human herpes virus type 8” (Biotrin International Properties Limited, priority 1998, dated 2003).

The subject of the test is anti-EBV antibodies. Put plainly: ELISA with EBV control peptide, comparing antibody titers against HHV-8 and EBV. It counts as binding, human. The method, then:
Various control panels as well as control peptides were used to test the specificity of the HHV-8 antibody ELISA. Using an EBV control peptide (cf. table 2), analyses were carried out to compare antibody titers against HHV-8 and EBV (a closely related herpesvirus). In 56 out of 64 cases the observed antibody titers were at least 30% divergent; the EBV seroprevalence was 86% with HIV-positive patients and 72% with the controls.

As to “S G S G Q E P P A P Q A P I (SGSGQEPPAPQAPI; Epstein-Barr virus) [EBV control peptide, control peptide, Epstein-Barr virus strain B95-8, EBNA 6, position 100695-100724, with SGSG spacer]”, the EBV seroprevalence is, setting by setting: (HIV-positive patients) 86%; (controls) 72%.
